In ChEMBL document CHEMBL1201862, “PubChem BioAssay data set” (2004):
Activity calls are given as the source filed them.

Key:
fMet-Leu-Phe receptor = target: T1, fMet-Leu-Phe receptor (Homo sapiens, UniProt P21462); assay: FPR ligands, dose response (AID 519); format: functional
T1 sequence (P21462 whole entry): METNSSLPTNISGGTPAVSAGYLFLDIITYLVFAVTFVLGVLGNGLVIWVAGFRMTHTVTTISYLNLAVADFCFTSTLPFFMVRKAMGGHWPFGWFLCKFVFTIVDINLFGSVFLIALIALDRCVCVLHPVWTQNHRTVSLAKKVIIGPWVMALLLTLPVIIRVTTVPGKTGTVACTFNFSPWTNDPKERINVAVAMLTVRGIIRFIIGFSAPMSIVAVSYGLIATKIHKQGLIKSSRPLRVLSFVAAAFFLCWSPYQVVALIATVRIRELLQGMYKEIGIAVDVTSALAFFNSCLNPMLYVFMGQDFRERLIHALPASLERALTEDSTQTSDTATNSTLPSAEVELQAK

[1] = target: T2, Long-chain-fatty-acid--AMP ligase FadD28 (Mycobacterium tuberculosis, UniProt P9WQ59); assay: Fluorescence polarization aasay to screen for inhibitors that compete for the binding of FadD28 to a bisubstrate Measured in Biochemical System Using Plate Reader - 2147-01_Inhibitor_Dose_CherryPick_Activity.; format: functional, Mycobacterium tuberculosis H37Rv
T2 sequence (P9WQ59 whole entry): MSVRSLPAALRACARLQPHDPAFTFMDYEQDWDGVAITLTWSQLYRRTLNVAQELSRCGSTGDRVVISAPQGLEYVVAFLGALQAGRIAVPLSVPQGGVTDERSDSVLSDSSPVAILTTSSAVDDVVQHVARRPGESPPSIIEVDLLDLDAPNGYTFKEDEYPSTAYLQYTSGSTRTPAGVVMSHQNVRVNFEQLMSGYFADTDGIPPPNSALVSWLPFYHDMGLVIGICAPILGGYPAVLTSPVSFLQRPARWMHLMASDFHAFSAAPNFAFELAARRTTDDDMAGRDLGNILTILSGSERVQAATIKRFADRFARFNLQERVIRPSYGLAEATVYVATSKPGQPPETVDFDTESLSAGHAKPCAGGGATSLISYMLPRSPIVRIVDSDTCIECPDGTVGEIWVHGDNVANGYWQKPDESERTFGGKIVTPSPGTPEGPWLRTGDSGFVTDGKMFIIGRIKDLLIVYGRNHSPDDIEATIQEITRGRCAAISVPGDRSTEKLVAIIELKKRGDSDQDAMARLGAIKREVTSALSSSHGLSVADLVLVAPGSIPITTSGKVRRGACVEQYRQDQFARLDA

[2] = target: Glyceraldehyde-3-phosphate dehydrogenase (Homo sapiens, UniProt P04406)
[3] = target: T3, Fructose-bisphosphate aldolase (Mycobacterium tuberculosis, UniProt P9WQA3); assay: Fluorescence-based biochemical high throughput dose response assay for inhibitors of the fructose-bisphosphate aldolase (FBA) of M. tuberculosis.; format: functional
T3 sequence (P9WQA3 whole entry): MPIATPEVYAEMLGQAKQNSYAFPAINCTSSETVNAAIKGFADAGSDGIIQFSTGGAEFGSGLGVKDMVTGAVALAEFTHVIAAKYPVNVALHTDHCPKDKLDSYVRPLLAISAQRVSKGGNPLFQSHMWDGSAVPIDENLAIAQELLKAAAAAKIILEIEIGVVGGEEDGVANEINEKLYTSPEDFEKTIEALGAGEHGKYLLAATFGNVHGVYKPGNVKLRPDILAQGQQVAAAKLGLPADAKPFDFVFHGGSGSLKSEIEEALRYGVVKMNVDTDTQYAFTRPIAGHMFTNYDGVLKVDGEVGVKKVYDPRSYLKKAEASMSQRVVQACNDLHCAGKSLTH

Cytochrome P450 2D6 = Cytochrome P450 2D6 (Homo sapiens, UniProt P10635);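 further: CYP2D6 member of a cytochrome P450 panel assay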
[4] = target: T4, Oxysterols receptor LXR-beta (Homo sapiens, UniProt P55055); format: functional, cell-based;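 further: agonist activity at LXR measured by a cell-based luminescence readout across a dose range, run as a counterscreen for daf-12 agonists; HEK293 cells with Gal4-LXR fusion and GAL4-driven luciferase reporter; potency for activation of Gal4-LXR reporter so compounds are agonists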
T4 sequence (P55055 whole entry): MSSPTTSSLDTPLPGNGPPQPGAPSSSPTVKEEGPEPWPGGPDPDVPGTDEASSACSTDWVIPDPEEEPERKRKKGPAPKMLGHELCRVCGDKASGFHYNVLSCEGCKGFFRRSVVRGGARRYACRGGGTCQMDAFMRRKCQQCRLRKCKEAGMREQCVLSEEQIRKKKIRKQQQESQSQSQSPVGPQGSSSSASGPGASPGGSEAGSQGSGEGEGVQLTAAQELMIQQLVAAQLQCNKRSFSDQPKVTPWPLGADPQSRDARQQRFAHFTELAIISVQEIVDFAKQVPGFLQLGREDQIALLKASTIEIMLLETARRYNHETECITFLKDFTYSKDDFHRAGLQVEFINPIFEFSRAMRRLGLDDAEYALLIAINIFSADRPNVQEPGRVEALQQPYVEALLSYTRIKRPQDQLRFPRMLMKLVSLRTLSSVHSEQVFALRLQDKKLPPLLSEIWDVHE

Cytochrome P450 1A2 = target: T5, Cytochrome P450 1A2 (Homo sapiens, UniProt P05177);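 further: PubChem cytochrome P450 panel assay, CYP1A2 panel member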
T5 sequence (P05177 whole entry): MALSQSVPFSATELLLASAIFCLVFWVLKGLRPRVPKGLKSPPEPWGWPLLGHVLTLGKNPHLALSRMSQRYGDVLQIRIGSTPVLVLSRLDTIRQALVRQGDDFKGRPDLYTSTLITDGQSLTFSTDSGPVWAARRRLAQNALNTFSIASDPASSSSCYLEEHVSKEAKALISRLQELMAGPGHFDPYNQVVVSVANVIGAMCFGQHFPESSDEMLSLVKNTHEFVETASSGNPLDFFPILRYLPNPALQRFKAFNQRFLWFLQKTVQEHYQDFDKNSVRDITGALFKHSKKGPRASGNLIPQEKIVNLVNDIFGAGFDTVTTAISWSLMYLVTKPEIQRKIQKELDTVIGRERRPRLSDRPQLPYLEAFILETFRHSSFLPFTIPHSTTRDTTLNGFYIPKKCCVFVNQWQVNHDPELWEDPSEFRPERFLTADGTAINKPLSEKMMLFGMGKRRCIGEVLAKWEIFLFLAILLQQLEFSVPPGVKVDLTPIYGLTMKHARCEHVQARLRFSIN

Cytochrome P450 3A4 = Cytochrome P450 3A4 (Homo sapiens, UniProt P08684);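 further: CYP3A4 tested as one member of a cytochrome P450 panel screen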
[5] = human group III sPLA2 inhibitors, dose response, biochemical, QFRET, IC50 (AID 743457);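 further: green fluorescence rise as the enzyme cleaves BODIPY PC-A2 in liposomes; potency for inhibition of the enzyme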

Chain of Cytochrome P450 2D6 (P10635 whole entry, the tested form may be a part): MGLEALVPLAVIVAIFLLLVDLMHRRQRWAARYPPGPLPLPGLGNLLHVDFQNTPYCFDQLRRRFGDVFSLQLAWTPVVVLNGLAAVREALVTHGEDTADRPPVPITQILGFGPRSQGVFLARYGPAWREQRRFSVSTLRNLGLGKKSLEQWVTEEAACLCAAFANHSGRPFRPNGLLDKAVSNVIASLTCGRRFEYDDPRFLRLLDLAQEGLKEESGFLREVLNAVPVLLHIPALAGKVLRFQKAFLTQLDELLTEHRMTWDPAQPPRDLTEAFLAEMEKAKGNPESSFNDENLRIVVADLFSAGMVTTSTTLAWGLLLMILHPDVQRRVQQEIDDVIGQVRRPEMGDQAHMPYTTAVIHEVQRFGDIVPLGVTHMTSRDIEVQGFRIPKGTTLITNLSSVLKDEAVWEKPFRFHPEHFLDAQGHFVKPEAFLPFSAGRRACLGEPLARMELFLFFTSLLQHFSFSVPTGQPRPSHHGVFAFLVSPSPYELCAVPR
Chain of Glyceraldehyde-3-phosphate dehydrogenase (P04406 whole entry): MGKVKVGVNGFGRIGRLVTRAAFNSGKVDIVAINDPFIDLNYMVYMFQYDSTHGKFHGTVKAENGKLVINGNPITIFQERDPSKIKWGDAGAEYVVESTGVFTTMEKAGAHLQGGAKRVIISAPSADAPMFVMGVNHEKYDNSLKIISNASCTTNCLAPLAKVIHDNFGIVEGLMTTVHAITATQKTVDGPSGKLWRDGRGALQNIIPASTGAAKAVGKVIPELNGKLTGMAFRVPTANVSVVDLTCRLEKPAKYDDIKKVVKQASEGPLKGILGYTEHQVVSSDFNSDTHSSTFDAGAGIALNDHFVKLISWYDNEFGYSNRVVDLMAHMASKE
Chain of Cytochrome P450 3A4 (P08684 whole entry): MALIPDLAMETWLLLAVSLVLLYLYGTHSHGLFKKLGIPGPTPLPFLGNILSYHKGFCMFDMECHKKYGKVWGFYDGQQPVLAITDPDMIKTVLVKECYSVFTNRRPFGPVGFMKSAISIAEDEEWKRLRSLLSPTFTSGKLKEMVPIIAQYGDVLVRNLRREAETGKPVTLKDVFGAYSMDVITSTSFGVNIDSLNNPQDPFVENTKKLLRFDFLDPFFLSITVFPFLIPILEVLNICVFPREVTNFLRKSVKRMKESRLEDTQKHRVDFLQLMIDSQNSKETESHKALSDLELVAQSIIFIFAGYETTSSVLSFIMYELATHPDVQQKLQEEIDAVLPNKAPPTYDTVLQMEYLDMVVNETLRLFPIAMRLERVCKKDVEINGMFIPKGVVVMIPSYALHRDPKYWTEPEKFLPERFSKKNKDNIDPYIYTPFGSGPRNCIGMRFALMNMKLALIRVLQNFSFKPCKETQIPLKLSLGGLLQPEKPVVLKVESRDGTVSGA

COC(=O)c1ccc(C2C(C(=O)c3ccc(OC)cc3)=C(O)C(=O)N2Cc2ccco2)cc1 (stereo unspecified)
Ki (fMet-Leu-Phe receptor): 43 µM (inactive)

Cc1cccc(NC(=O)CN2C(=O)N/C(=C\c3ccc(-c4cccc(C(=O)O)c4)o3)C2=O)c1
AC50 [1]: 3.6 µM (active)

O=C(O)c1cc(S(=O)(=O)Nc2ccccc2C(=O)O)ccc1O
IC50 [2]: > 100 µM (not active) | IC50 [3]: > 9.99 µM (inactive)

NC(=Nc1ccccc1)NC(=O)c1nc(Cl)c(N)nc1N [PHENAMIL METHANESULFONATE]
AC50 (Cytochrome P450 2D6): 31.6 µM (inconclusive) | EC50 [4]: > 67.5 µM (inactive) | AC50 (Cytochrome P450 1A2): 12.6 µM (inconclusive) | AC50 (Cytochrome P450 3A4): 39.8 µM (inconclusive)

CCN(CC)c1ccc(/C=N/NC(=O)c2ccc3c(c2)OCCO3)cc1
AC50 [1]: 74.2 µM (active)

O=[N+]([O-])c1ccccc1/C=N/n1c(S)nnc1C1CCCCC1
IC50 [5]: > 122 µM (inactive)

Cc1ccc(-c2nnc(SCC(=O)NN=C(S)Nc3ccccc3)n2C2CCCCC2)cc1
IC50 [5]: > 122 µM (inactive)
